Results from patent publication US8709740B2, “Control of protein activity using a conducting polymer” (The United States of America, as represented by the …, priority 2005, dated 2014).

How the values were obtained:
kinesin = details: comparison value, source not given; read-out: inhibition constant Ki (other inhibitors); cited from earlier work
[1] = biological target: T1, Drosophila sp. kinesin K401-BCCP-His6 (K401-biotin carboxyl carrier protein-His6) (Drosophila melanogaster, UniProt P17210); experiment: Michaelis-Menten kinetics of kinesin on poly(OH-EDOT) surface from microtubule gliding speeds at varied ATP concentration; format: biochemical
T1 construct: motor domain, neck linker and part of the coiled coil) of kinesin-1 heavy chain fused to biotin carboxyl carrier protein (BCCP, from E. coli in the known construct) and a His6 tag; microtubules and ATP present
T1 sequence (P17210 1-401): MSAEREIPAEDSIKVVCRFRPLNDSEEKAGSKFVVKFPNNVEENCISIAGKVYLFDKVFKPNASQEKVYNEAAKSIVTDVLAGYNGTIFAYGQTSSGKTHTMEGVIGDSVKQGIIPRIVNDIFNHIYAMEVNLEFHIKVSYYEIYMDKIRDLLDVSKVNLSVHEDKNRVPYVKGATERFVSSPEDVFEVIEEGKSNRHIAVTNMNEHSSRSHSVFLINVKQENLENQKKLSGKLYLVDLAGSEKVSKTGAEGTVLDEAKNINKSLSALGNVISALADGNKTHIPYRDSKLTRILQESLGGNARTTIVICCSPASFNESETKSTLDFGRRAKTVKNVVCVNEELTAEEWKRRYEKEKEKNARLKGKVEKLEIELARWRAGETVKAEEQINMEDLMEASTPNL
Excerpt: The protein ensemble (streptavidin, BSA, Drosophila kinesin K401-biotin carboxyl carrier protein (BCCP)-His6 and MTs) was deposited onto the conducting polymer surface (initially doped) using standard flow or droplet deposition methods. Flow cells were assembled using double-sided tape as a spacer creating a channel of approximate dimensions 5 mm×10 mm×0.04 mm. For the non-electrochemical assays, the poly(OH-EDOT)/PET substrate was placed on a glass slide with the conducting polymer layer down. The proteins were introduced using the standard capillary-flow technique. The buffer for all experiments was BRB80 (80 mM Pipes, 2 mM MgCl2, 1 mM EGTA, pH 6.95 with KOH). The flow cells were sequentially filled with a streptavidin solution (Streptomyces avidinii, Sigma-Aldrich, 1.0 mg/mL in BRB80, 10 min deposition time), BSA solution (Sigma-Aldrich, 1.0 mg/mL in BRB80, 10 min deposition time), standard kinesin solution (40 μg/mL kinesin K401-BCCP-His6 with 1 mM ATP in BRB80, 10 min deposition time), and finally a motility buffer with rhodamine-labeled microtubules (1-10 μm in length), containing 1 mM ATP and stabilized with 10 μM Taxol with oxygen scavenging additives (20 mM D-glucose, 20 μg/mL glucose oxidase, 8 μg/mL catalase, 0.2% 2-mercaptoethanol). Flow cells were sealed with immersion oil to prevent evaporation. The assays were performed at room temperature (21° C.).
It has recently been well established that as kinesin hydrolyzes a single ATP molecule, it induces an eight-nanometer movement of a microtubule. Therefore enzyme activity can be indirectly assayed by simply determining the average speed of a large population of microtubules. This was done using fluorescently-labeled microtubules, and their gliding speeds were then carefully measured using confocal microscopy. Microtubules were visualized on the conducting polymer using an Olympus Opelco BX51 fluorescence microscope and their speeds quantified using Metamorph image analysis software (Universal Imaging, Downingtown, Pa.). This assay method was then combined with a transparent electrochemical cell containing a poly(OH-EDOT) support. The poly(OH-EDOT) was ˜80% transparent in the visible range, allowing the microtubules to be easily seen and their speeds measured. […] The surface was then electrochemically doped by applying a bias of […] for 1 minute. The average microtubule speed was measured and found to be 0.40 μm/sec. The resulting ratio in speed differences (dedoped vs. doped surfaces) is 1.55, a striking exact correlation with the ATP hydrolysis ratios on the two surfaces. The surface was then cycled between the two states once more to give an overall cycling history of −1.0 V, +1.0 V, −1.0 V, +1.0 V with corresponding polymer states dedoped, doped, dedoped, doped (FIG. 3). For the second doping cycle the microtubule speeds were 0.63 (dedoped) and 0.40 (doped), giving a speed difference ratio of […].
At this point it was clear that the polymer surface was exerting a direct, reversible effect on the kinesin protein itself. The nature of this influence was examined by treating the charged species in the doped polymer form (the radical cation, or polaron) as an inhibitor, and quantified the enzyme kinetics in terms of Michaelis-Menten parameters. First, the surface concentration of the polarons was calculated using the established value of one polaron per four polymer repeat units for fully doped thiophene-type polymers. […] If one then encloses a kinesin molecule in a cube 30 nm per side and considers the polarons on the 30 nm×30 nm surface region to be distributed in the cube volume, an apparent local polaron concentration ([Iapp]) of 3.89 mM is obtained.
The Michaelis-Menten analysis assumes a kinetic model of the type shown in FIG. 5 (E=enzyme, ES=enzyme-substrate complex, P=product, kcat=catalytic turnover rate constant, Dstep=8 nm, Km=Michaelis constant). The kinetics of most enzymes, including kinesin, is accurately described with this model. […]

[2] = substrate ATP, doped vs dedoped surface

In the case of `Nc1ncnc2c1ncn2[C@@H]1O[C@H](COP(=O)(O)OP(=O)(O)O)[C@@H](O)[C@H]1O` [ADP, adenosine diphosphate], the Ki (kinesin) is listed as 0.048 mM.

With `Nc1ncnc2c1ncn2[C@@H]1O[C@H](COP(=O)(O)OP(=O)(O)OP(=O)(O)O)[C@@H](O)[C@H]1O` [ATP, adenosine triphosphate] the Speedmax dedoped ([1]; dedoped poly(OH-EDOT) surface, microtubule speed at infinite ATP concentration, 21° C., BRB80 pH 6.95) was 0.943 μm/s ± 0.05, the Speedmax doped ([1]; doped poly(OH-EDOT) surface, microtubule speed at infinite ATP concentration, 21° C., BRB80 pH 6.95) was 0.600 μm/s ± 0.03 and the kcat dedoped ([1]; substrate ATP, dedoped poly(OH-EDOT) surface, 8 nm step per ATP hydrolyzed) was 118 sec^−1 ± 6. The kcat doped ([1]; substrate ATP, doped poly(OH-EDOT) surface, 8 nm step per ATP hydrolyzed) was 75.0 sec^−1 ± 3, the “Km app doped lower than Km dedoped” value [1, 2] was “ca. 35%” and the “kcat doped lower than kcat dedoped” value [1, 2] was “ca. 36%”.

For `O=P(O)(O)O` [PO4^2−], the Ki (kinesin) is given as 9.3 mM.
